Literature values, collected in patent US20090304794A1, “CONTROLLED RELEASE FORMULATIONS OF PRAMIPEXOLE” (Supernus Pharmaceuticals, Inc., priority 2008, published 2009).
Where two headings read alike, the source gives them in different places.

In the case of `CCCN[C@H]1CCc2nc(N)sc2C1` [pramipexole], the terminal elimination half-life (elderly volunteers) is given as “about 12 hours”, the “lower clearance rate in females than males” value (females versus males) is given as 30% and the terminal elimination half-life (healthy volunteers) is given as “about 8 hours”. The “absolute bioavailability (BA)” value (in vivo) was “greater than 90%”.
